Results on seven compounds are retold here after ChEMBL document CHEMBL1201862, “PubChem BioAssay data set” (2004).

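All cell lines were grown in 96-well plates and treated with compound for 48 hours. At the GI50, growth is halved.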 The source made the active and inactive calls. Rule as the data show it: active = GI50 up to about 1.1 µM and inactive = higher. Starred links: 1 amine or outer side, 2 acyl side, 3 side chain; linkers in the order of their positions; H or OH if unused. Positions of bridges follow the written chain, without caps; N, C: chain ends. Non-standard residues stand in square brackets, D forms with d. Residues, ends and D or L forms follow the SMILES beside them. ξ: configuration not given here. X37 = CC[C@H](C)[C@@H](N[*:1])[C@@H](O)CC(=O)O[C@H](C(=O)[C@H](C)C(=O)[*:2])C(C)C; NMeY = CN[C@@H](Cc1ccc(O)cc1)C(=O)O; dNMeL = CN[C@H](CC(C)C)C(=O)O; ξΔPro = O=C(O)C1C=CCN1 A value given as a limit tells only on which side of the number the result lay.

Among the test systems are HOP-62; KM12; MDA-MB-231; MDA-MB-435; EKVX; 786-0; SNB-19; TK-10; A549; SK-MEL-5; Hs-578T; MOLT-4; PC-3; CCRF-CEM; CAKI-1; Malme-3M; BT-549; HCC 2998; MDA-N; NCI-H522.
Holding throughout (test): NCI anticancer screen, dose series, 48 h

As for `CC(=O)O[C@H]1CC[C@@]2(C)C(=CC[C@H]3[C@@H]4C[C@H](N5CCN(C)CC5)[C@H](OC(C)=O)[C@@]4(C)CC[C@@H]32)C1`, the GI50 with HOP-62 is 25.1 µM (inactive); in the assay with KM12, 16.7 µM (inactive); in the assay with MDA-MB-231, 16.7 µM (inactive); in the assay on MDA-MB-435 it was 5.08 µM (inactive); with EKVX, 20.7 µM (inactive); with 786-0 it was 19.2 µM (inactive). The GI50 in the assay on SNB-19 was 21.9 µM (inactive); with TK-10 it was > 100 µM (inactive); in the assay with A549, 18.5 µM (inactive); in the assay with SK-MEL-5 it was 3.53 µM (inactive); in the assay on Hs-578T, 26.2 µM (inactive); with MOLT-4, 4.39 µM (inactive). For the same compound, the GI50 with PC-3 is 16.8 µM (inactive); in the assay on CCRF-CEM it was 3.98 µM (inactive); in the assay with CAKI-1, 33.3 µM (inactive); in the assay with Malme-3M, 11.7 µM (inactive); in the assay on BT-549, 17.8 µM (inactive); in the assay with HCC 2998 it was 15.5 µM (inactive). Further, the GI50 with MDA-N was 12.1 µM (inactive); in the assay with NCI-H522 it was 18.8 µM (inactive).
With `CCC1(CCSC(=N)N)C(=O)NC(=O)NC1=O`, the GI50 in the assay with HOP-62, with KM12, with MDA-MB-231, in the assay on MDA-MB-435, in the assay with EKVX and in the assay with 786-0 was > 100 µM (inactive) in each case. Further, the GI50 in the assay with SNB-19, in the assay with TK-10, in the assay on A549, with SK-MEL-5, in the assay with Hs-578T and in the assay on MOLT-4 was > 100 µM (inactive) each time. In addition, the GI50 in the assay on PC-3, in the assay on CCRF-CEM, in the assay on CAKI-1, in the assay with Malme-3M, in the assay on BT-549 and in the assay on HCC 2998 was > 100 µM (inactive) in each case. The GI50 in the assay with MDA-N and in the assay with NCI-H522 was > 100 µM (inactive) throughout.
For the compound `CC(C)(C)C(=O)CC1=Nc2ccccc2SC1(O)CC(=O)C(C)(C)C` (stereo not given), the GI50 in the assay with HOP-62 was 26.3 µM (inactive); with KM12, 20.1 µM (inactive); in the assay on MDA-MB-231, 17.8 µM (inactive); in the assay on MDA-MB-435, 22.6 µM (inactive); in the assay on EKVX it was 16.2 µM (inactive); in the assay on 786-0 it was 23.4 µM (inactive). Further, the GI50 is 35.6 µM (inactive) in the assay on SNB-19; 64 µM (inactive) with TK-10; 20.5 µM (inactive) with A549; 18.9 µM (inactive) with SK-MEL-5; 20.1 µM (inactive) in the assay with Hs-578T; 3.48 µM (inactive) in the assay with MOLT-4. Besides, the GI50 is 22.5 µM (inactive) with PC-3; 8.49 µM (inactive) in the assay on CCRF-CEM; 14.7 µM (inactive) in the assay with CAKI-1; 33.3 µM (inactive) with Malme-3M; 15.7 µM (inactive) in the assay on BT-549; 14.8 µM (inactive) in the assay on HCC 2998. In addition, the figures for the GI50 in the assay with MDA-N and with NCI-H522 were 32.7 µM (inactive) and 13 µM (inactive), respectively.
As for `COc1cccc(N2C(=O)C3c4[nH]c5ccccc5c4C4c5ccccc5CCC4C3C2=O)c1` (stereo not given), the GI50 was 2.4 µM (inactive) in the assay with HOP-62; > 10 µM (inactive) in the assay on KM12; 5.06 µM (inactive) in the assay on MDA-MB-231; > 7.5 µM (inactive) in the assay with MDA-MB-435; > 9.31 µM (inactive) with EKVX; 2.9 µM (inactive) with 786-0. In addition, the GI50 with SNB-19 was 3.31 µM (inactive); in the assay with TK-10 it was > 10 µM (inactive); in the assay on A549, 6.12 µM (inactive); in the assay with SK-MEL-5, > 8.81 µM (inactive); in the assay with Hs-578T, 3 µM (inactive); in the assay on MOLT-4, > 10 µM (inactive). Besides, the GI50 in the assay with PC-3 is > 6.7 µM (inactive); in the assay on CCRF-CEM, > 10 µM (inactive); with CAKI-1 it was > 10 µM (inactive); in the assay with Malme-3M, 3.75 µM (inactive); in the assay with BT-549, 4.91 µM (inactive); with HCC 2998, > 10 µM (inactive). Also, the GI50 in the assay on MDA-N is > 8.28 µM (inactive); with NCI-H522 it was > 10 µM (inactive).
As to `Cc1cc2c(cc1Cl)SC(NNC1=NCCN1)=NS2(=O)=O`, the GI50 in the assay on HOP-62, in the assay on KM12, in the assay on MDA-MB-231, with MDA-MB-435, in the assay with EKVX and in the assay with 786-0 was > 10 µM (inactive) throughout. For the same compound, the GI50 in the assay with SNB-19, in the assay on TK-10, with A549, with SK-MEL-5, in the assay on Hs-578T and with MOLT-4 was > 10 µM (inactive) each time. Further, the GI50 with PC-3, in the assay with CCRF-CEM, in the assay on CAKI-1, in the assay on Malme-3M, in the assay on BT-549 and in the assay with HCC 2998 was > 10 µM (inactive) each time. In addition, the GI50 in the assay on MDA-N and in the assay with NCI-H522 was > 10 µM (inactive) throughout.
Consider `CC[C@H](C)[C@H]1NC(=O)[C@@H](NC(=O)[C@@H](CC(C)C)N(C)C(=O)C2C=CCN2)[C@@H](C)OC(=O)[C@H](Cc2ccc(OC)cc2)N(C)C(=O)[C@@H]2CCCN2C(=O)[C@H](CC(C)C)NC(=O)[C@@H](C)C(=O)[C@H](C(C)C)OC(=O)C[C@@H]1O` (stereo not given in full) (H-[ξΔPro][dNMeL]T[X37]LP[NMeY](Me); ester 3-C), for which the GI50 in the assay with HOP-62, in the assay with KM12, with MDA-MB-231, with MDA-MB-435, with EKVX and in the assay with 786-0 was < 0.005 µM (active) in each case. Besides, the GI50 in the assay on SNB-19, in the assay with TK-10, with A549, in the assay on SK-MEL-5, with Hs-578T and with MOLT-4 was < 0.005 µM (active) throughout. Also, the GI50 in the assay with PC-3 is < 0.005 µM (active); in the assay with CCRF-CEM it was < 0.005 µM (active); in the assay with CAKI-1, 0.0107 µM (active); in the assay with Malme-3M, < 0.005 µM (active); in the assay on BT-549, < 0.005 µM (active); in the assay with HCC 2998, < 0.005 µM (active). For the same compound, the GI50 with MDA-N and in the assay with NCI-H522 was < 0.005 µM (active) throughout.
Take `CC(C)[C@](O)(C(=O)OCC1=CC[N+]2([O-])CC[C@@H](O)[C@@H]12)[C@H](C)O` (stereo not given in full) [INDICINE N-OXIDE]: the GI50 was 3590 µM (inactive) in the assay with HOP-62; > 10000 µM (inactive) in the assay on KM12; > 10000 µM (inactive) in the assay with MDA-MB-231; > 10000 µM (inactive) in the assay with MDA-MB-435; > 9060 µM (inactive) in the assay on EKVX; > 9270 µM (inactive) in the assay on 786-0. Moreover, the GI50 is > 10000 µM (inactive) in the assay on SNB-19; > 10000 µM (inactive) with TK-10; 5960 µM (inactive) with A549; > 7000 µM (inactive) with SK-MEL-5; > 5430 µM (inactive) in the assay with Hs-578T; 8570 µM (inactive) in the assay on MOLT-4. The GI50 in the assay with PC-3 is > 10000 µM (inactive); in the assay with CCRF-CEM, > 9160 µM (inactive); with CAKI-1, 6520 µM (inactive); in the assay on Malme-3M it was > 9420 µM (inactive); in the assay with BT-549, > 10000 µM (inactive); with HCC 2998, > 10000 µM (inactive). The GI50 in the assay with MDA-N is > 10000 µM (inactive); with NCI-H522 it was > 7410 µM (inactive).
